According to ChEMBL document CHEMBL5233266, “β-Carboline as a Privileged Scaffold for Multitarget Strategies in Alzheimer's Disease Therapy” (J Med Chem, 2021):
Where “and” joins values, the source holds several entries; their conditions need not be identical. Identical values can stand only once.

Experiments:
[1] = target: cGMP-specific 3',5'-cyclic phosphodiesterase (Homo sapiens, UniProt O76074); test: Inhibition of PDE5 (unknown origin)
[2] = target: Acetylcholinesterase (Homo sapiens, UniProt P22303); test: Inhibition of AChE (unknown origin)
[3] = target: GABA-A receptor; anion channel; test: Displacement of [3H]flunitrazepam from GABAA (unknown origin ) receptor by radioligand binding assay; format: protein-complex assay, Homo sapiens
[4] = target: T1, Gamma-aminobutyric acid receptor subunit alpha-1 (Homo sapiens, UniProt P14867); test: Binding affinity to human recombinant GABAA alpha1 receptor assessed as inhibition constant incubated for 1 hrs by liquid scintillation counting analysis
T1 sequence (P14867 whole entry): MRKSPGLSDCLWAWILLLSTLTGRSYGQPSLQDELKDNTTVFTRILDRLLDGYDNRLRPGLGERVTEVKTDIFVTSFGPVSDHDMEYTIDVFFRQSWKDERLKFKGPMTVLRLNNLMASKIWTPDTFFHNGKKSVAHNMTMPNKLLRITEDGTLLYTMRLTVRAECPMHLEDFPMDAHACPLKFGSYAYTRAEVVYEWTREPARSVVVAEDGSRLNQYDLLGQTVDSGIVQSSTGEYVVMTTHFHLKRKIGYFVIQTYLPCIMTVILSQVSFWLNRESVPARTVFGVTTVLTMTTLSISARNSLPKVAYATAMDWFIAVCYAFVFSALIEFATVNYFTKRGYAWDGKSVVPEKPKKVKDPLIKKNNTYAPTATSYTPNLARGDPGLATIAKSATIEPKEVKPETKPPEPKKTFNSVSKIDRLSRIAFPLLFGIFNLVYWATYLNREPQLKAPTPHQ

[5] = target: T2, Gamma-aminobutyric acid receptor subunit alpha-2 (Homo sapiens, UniProt P47869); test: Binding affinity to human recombinant GABAA alpha2 receptor assessed as inhibition constant incubated for 1 hrs by liquid scintillation counting analysis
T2 sequence (P47869 whole entry): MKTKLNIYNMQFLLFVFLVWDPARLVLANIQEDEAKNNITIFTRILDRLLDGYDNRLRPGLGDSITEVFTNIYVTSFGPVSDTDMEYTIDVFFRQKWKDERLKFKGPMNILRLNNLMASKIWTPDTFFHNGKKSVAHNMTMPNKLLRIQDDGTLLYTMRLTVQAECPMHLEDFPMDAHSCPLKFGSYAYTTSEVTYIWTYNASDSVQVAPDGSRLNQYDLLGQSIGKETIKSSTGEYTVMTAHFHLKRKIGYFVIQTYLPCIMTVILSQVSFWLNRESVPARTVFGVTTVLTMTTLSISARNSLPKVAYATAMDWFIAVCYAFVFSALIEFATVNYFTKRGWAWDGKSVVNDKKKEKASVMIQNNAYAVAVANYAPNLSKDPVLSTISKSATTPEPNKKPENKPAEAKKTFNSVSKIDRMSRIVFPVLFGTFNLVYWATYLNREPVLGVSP

[6] = target: T3, Gamma-aminobutyric acid receptor subunit alpha-3 (Homo sapiens, UniProt P34903); test: Binding affinity to human recombinant GABAA alpha3 receptor assessed as inhibition constant incubated for 1 hrs by liquid scintillation counting analysis
T3 sequence (P34903 whole entry): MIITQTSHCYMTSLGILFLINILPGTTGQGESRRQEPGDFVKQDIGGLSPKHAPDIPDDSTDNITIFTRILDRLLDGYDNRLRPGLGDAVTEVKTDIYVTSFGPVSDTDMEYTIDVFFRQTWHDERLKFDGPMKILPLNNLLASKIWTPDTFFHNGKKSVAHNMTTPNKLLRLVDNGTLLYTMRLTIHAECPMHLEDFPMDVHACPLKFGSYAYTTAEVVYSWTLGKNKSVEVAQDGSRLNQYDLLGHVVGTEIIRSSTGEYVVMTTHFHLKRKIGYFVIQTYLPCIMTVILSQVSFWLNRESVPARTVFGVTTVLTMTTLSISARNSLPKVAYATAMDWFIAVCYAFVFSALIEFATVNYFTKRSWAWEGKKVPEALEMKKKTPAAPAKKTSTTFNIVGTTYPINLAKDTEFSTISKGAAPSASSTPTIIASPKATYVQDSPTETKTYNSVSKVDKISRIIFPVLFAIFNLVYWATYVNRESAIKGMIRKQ

[7] = target: T4, Gamma-aminobutyric acid receptor subunit alpha-5 (Homo sapiens, UniProt P31644); test: Binding affinity to human recombinant GABAA alpha5 receptor assessed as inhibition constant incubated for 1 hrs by liquid scintillation counting analysis
T4 sequence (P31644 whole entry): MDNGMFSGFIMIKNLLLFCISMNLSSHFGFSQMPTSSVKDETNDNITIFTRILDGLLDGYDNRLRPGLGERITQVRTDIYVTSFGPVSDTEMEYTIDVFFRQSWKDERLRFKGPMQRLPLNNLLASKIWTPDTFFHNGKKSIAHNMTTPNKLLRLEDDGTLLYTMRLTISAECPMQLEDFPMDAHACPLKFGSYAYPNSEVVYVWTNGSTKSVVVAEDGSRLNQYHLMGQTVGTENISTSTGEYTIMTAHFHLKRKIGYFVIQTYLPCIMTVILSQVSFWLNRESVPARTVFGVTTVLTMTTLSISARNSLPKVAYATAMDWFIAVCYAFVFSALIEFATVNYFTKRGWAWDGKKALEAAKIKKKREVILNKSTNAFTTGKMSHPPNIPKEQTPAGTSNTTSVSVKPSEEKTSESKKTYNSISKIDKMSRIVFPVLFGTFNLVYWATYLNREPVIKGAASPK

[8] = target: Gamma-aminobutyric acid receptor subunit alpha-6 (Homo sapiens, UniProt Q16445); test: Binding affinity to human recombinant GABAA alpha6 receptor assessed as inhibition constant incubated for 1 hrs by liquid scintillation counting analysis
[9] = target: Cholinesterase (Homo sapiens, UniProt P06276); test: Inhibition of BuChE (unknown origin)
Sequence of Cholinesterase (P06276 whole entry): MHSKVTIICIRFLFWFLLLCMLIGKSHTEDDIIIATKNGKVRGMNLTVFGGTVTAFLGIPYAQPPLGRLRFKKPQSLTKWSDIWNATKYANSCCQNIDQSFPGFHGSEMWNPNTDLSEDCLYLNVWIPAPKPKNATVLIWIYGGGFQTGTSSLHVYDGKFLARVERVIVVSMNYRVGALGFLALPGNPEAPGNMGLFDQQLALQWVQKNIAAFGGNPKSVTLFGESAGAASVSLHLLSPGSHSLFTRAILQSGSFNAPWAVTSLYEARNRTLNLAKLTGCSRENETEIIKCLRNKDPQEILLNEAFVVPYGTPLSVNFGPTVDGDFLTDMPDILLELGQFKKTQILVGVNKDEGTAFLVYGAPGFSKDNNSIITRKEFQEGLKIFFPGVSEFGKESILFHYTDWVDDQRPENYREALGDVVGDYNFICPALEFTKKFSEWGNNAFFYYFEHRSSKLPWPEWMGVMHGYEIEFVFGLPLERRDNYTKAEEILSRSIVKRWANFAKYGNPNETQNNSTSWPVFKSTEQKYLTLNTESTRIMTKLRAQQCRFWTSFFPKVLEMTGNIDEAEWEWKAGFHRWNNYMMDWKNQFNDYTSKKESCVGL

Sequence of Acetylcholinesterase (P22303 whole entry): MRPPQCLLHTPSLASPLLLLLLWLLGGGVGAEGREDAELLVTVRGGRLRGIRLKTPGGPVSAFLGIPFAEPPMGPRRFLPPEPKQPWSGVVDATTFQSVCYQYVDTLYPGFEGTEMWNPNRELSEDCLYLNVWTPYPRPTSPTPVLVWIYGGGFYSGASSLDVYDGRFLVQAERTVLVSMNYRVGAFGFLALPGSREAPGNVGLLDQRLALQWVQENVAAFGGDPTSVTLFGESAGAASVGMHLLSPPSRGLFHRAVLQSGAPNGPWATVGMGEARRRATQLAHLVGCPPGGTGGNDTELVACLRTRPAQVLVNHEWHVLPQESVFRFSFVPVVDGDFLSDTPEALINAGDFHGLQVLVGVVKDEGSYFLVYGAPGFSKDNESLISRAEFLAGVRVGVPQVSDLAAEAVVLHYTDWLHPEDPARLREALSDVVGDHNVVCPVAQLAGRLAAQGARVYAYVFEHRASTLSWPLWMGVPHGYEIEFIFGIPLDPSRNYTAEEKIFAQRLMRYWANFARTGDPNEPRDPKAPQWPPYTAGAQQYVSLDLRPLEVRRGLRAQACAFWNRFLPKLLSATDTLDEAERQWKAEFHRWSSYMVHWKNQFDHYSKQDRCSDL
Sequence of Gamma-aminobutyric acid receptor subunit alpha-6 (Q16445 whole entry): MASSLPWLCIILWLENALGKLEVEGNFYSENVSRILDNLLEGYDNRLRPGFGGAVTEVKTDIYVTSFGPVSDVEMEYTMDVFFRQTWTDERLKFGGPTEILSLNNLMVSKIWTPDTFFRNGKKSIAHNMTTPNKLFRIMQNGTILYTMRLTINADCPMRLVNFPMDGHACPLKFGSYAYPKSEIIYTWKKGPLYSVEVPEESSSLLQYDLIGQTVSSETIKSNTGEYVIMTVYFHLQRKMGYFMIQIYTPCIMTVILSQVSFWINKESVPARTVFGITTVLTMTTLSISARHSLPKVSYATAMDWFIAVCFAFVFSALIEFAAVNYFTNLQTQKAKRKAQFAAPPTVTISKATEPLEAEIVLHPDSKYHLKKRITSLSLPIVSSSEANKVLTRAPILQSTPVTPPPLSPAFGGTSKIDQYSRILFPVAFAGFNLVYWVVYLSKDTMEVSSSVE

O=C1[C@H]2Cc3c([nH]c4ccccc34)[C@@H](c3ccc4c(c3)OCO4)N2C(=O)CN1[C@@H]1CCN(Cc2ncc[nH]2)C1
IC50 [1]: 0.8 nM

COc1ccc2c3c([nH]c2c1N)C(C)NCC3 (configuration not stated)
IC50 [2]: 2000 nM

CCOC(=O)c1ncc2[nH]c3ccc(O)cc3c2c1COC
IC50 [3]: 0.5 nM | Ki [4]: 2 nM | Ki [5]: 5 nM | Ki [6]: 11 nM | Ki [7]: 19 nM | Ki [8]: 3000 nM

O=C(NCCCCCCNc1c2c(nc3ccccc13)CCCC2)[C@@H]1Cc2c([nH]c3ccccc23)CN1
IC50 [2]: 22 nM | INH [9]: 22 nM

Cn1ccnc1CN1CC[C@@H](N2CC(=O)N3[C@H](c4ccc5c(c4)OCO5)c4[nH]c5ccccc5c4C[C@@H]3C2=O)C1
IC50 [1]: 0.8 nM

CC(C)N1CC(=O)N2C(Cc3c([nH]c4ccccc34)C2c2ccc3c(c2)OCO3)C1=O (configuration not stated)
IC50 [1]: 3 nM

O=C1[C@@H]2Cc3c([nH]c4ccccc34)[C@@H](c3ccc4c(c3)OCO4)N2C(=O)CN1CCC1CCN(Cc2ccccc2)CC1
IC50 [2]: 32 nM | IC50 [1]: 1500 nM

CCN1C(=O)[C@@H]2Cc3c([nH]c4ccccc34)[C@@H](c3ccc(Br)cc3)N2C1=O
IC50 [1]: 40 nM

CCOC(=O)c1nc(C)c2[nH]c3cc(OC)c(OC)cc3c2c1CC
Ki [4]: 6 nM | Ki [5]: 19 nM | Ki [6]: 4 nM | Ki [7]: 3 nM | Ki [8]: 75 nM

C#CCn1c2cc(OC)ccc2c2ccnc(C)c21
IC50 [2]: 1900 nM

CCCCN1CC(=O)N2[C@H](c3ccc(Br)cc3)c3[nH]c4ccccc4c3C[C@H]2C1=O
IC50 [1]: 10 nM

CN1CCN(C(=O)c2ccc(-c3ccc(C(=O)N4CCc5c([nH]c6ccccc56)C4c4ccc5c(c4)OCO5)o3)cc2)CC1 (configuration not stated)
IC50 [1]: 8 nM

O=C1C2Cc3c([nH]c4ccccc34)C(c3ccc4c(c3)OCO4)N2C(=O)CN1C1CCCCC1 (configuration not stated)
IC50 [1]: 3 nM

CCCCN1CC(=O)N2C(Cc3c([nH]c4ccccc34)C2c2ccc3c(c2)OCO3)C1=O (configuration not stated)
IC50 [1]: 3 nM

CCOC(=O)c1ncc2[nH]c3cccc(OCc4ccccc4)c3c2c1COC
IC50 [3]: 0.2 nM

COc1ccc(-[n+]2ccc3c4ccccc4n(C)c3c2)cc1
IC50 [2]: 300 nM | IC50 [9]: 32000 nM and 116000 nM

S=C=Nc1cc2c(cn1)[nH]c1ccccc12
IC50 [3]: 3 nM | Ki [4]: 5 nM

CCOC(=O)c1ncc2[nH]c3cccc(OC(C)C)c3c2c1C
IC50 [3]: 0.4 nM

O=C1[C@H]2Cc3c([nH]c4ccccc34)[C@@H](c3ccc4c(c3)OCO4)N2C(=O)CN1[C@@H]1CCN(Cc2cccnc2)C1
IC50 [1]: 2 nM

CC(C)(C)COC(=O)c1cc2c(cn1)[nH]c1ccccc12
IC50 [3]: 750 nM

COC(=O)[C@@H]1Cc2c([nH]c3ccccc23)[C@@H](c2ccc(Cl)cc2)N1C(=O)CCl
IC50 [1]: 2700 nM

Cn1c2ccccc2c2cc[n+](-c3ccc(Cl)cc3)cc21
IC50 [2]: 560 nM and 300 nM | IC50 [9]: 32000 nM and 116000 nM

CCCOC(=O)c1cc2c(cn1)[nH]c1ccccc12
IC50 [3]: 1 nM

CCCCN1C(=O)[C@@H]2Cc3c([nH]c4ccccc34)[C@@H](c3ccc(Br)cc3)N2C1=O
IC50 [1]: 40 nM

O=C(O)c1cc2c(cn1)[nH]c1ccccc12
IC50 [3]: 31000 nM

CCCC(=O)c1cc2c(cn1)[nH]c1ccccc12
IC50 [3]: 3 nM | Ki [4]: 2 nM | Ki [5]: 16 nM | Ki [6]: 21 nM | Ki [7]: 1000 nM | Ki [8]: > 3000 nM

CCCOc1ccc2[nH]c3cnc(C(=O)OCC)c(COC)c3c2c1
IC50 [3]: 0.5 nM | Ki [4]: 0.5 nM | Ki [5]: 1 nM | Ki [6]: 2 nM | Ki [7]: 2 nM | Ki [8]: 1300 nM

CCCCN1CC2Cc3c([nH]c4ccccc34)C(c3ccc4c(c3)OCO4)N2C1=O (configuration not stated)
IC50 [1]: 60 nM

COc1ccc([C@@H]2N[C@@H](C(=O)O)Cc3c2n(C)c2ccccc32)cc1OC
IC50 [2]: 2500 nM

COc1ccc2c3ccnc(C)c3n(CC3CC(c4ccccc4)=NO3)c2c1 (configuration not stated)
IC50 [2]: 11000 nM

O=C1C2Cc3c([nH]c4ccccc34)C(c3ccc4c(c3)OCO4)N2C(=O)CN1Cc1ccccc1 (configuration not stated)
IC50 [1]: 3 nM

COc1ccc2c(c1)[nH]c1c(C(C)=O)nccc12 [ARENARINE C]
IC50 [2]: 4000 nM | IC50 [9]: 27000 nM

CCc1c(C(=O)OC)nc(C)c2[nH]c3cc(OC)c(OC)cc3c12
Ki [4]: 6 nM | Ki [5]: 8 nM | Ki [6]: 4 nM | Ki [7]: 1 nM | Ki [8]: 130 nM

CCN1C(=O)[C@@H]2Cc3c([nH]c4ccccc34)[C@@H](c3ccc(Cl)cc3)N2C1=O
IC50 [1]: 330 nM

CCOC(=O)c1ncc2[nH]c3ccc(OC)cc3c2c1COC
IC50 [3]: 0.5 nM | Ki [4]: 0.1 nM | Ki [5]: 1 nM | Ki [6]: 2 nM | Ki [7]: 4 nM

COC(=O)c1cc2c(cn1)[nH]c1ccc(NCc3ccccc3)cc12
IC50 [3]: 4 nM | Ki [4]: 5 nM | Ki [5]: 30 nM | Ki [6]: 49 nM | Ki [7]: 480 nM | Ki [8]: > 10000 nM

COc1ccc(C2c3[nH]c4ccccc4c3CC3C(=O)N(C4CCCCC4)C(=O)N32)cc1 (configuration not stated)
IC50 [1]: 3 nM

N#Cc1cc2c(cn1)[nH]c1ccccc12
IC50 [3]: 3 nM

COC(=O)c1cc2c(cn1)[nH]c1ccc(O)cc12
IC50 [3]: 4 nM

CCCCN1CC2Cc3c([nH]c4ccccc34)C(c3ccc(OC)cc3)N2C1=O (configuration not stated)
IC50 [1]: 60 nM

c1ccc2c(c1)[nH]c1c2ncc2[nH]c3ccccc3c21
Ki [4]: 1 nM | Ki [5]: 1 nM | Ki [6]: 1 nM | Ki [7]: 40 nM | Ki [8]: > 1000 nM

CCN1C(=O)[C@H]2Cc3c([nH]c4ccccc34)[C@@H](c3ccc(Br)s3)N2C1=O
IC50 [1]: 170 nM

CCOC(=O)c1ncc2[nH]c3ccc(OCc4ccccc4)cc3c2c1COC
IC50 [3]: 0.5 nM | Ki [4]: 4 nM | Ki [5]: 4 nM | Ki [6]: 6 nM | Ki [7]: 5 nM | Ki [8]: > 1000 nM

O=C1C2Cc3c([nH]c4ccccc34)[C@@H](c3ccc4c(c3)OCO4)N2C(=O)CN1CCC1CCN(Cc2ccccc2)CC1 (some centres not stated)
IC50 [2]: 36 nM | IC50 [1]: 150 nM

O=c1c2cc(NS(=O)(=O)c3ccccc3OC(F)(F)F)ccc2cc2n1CCc1c-2[nH]c2ccccc12
IC50 [9]: 3600 nM

CCOC(=O)c1cc2c(cn1)[nH]c1ccccc12
Ki [4]: 1 nM

CCN1C(=O)C2Cc3c([nH]c4ccccc34)C(c3ccc(OC)cc3)N2C1=O (configuration not stated)
IC50 [1]: 3 nM

COc1ccc(N2CC(=O)N3[C@H](c4ccc5c(c4)OCO5)c4[nH]c5ccccc5c4C[C@@H]3C2=O)cc1
IC50 [1]: 16 nM

CCOC(=O)c1ncc2[nH]c3ccccc3c2c1COC
IC50 [3]: 0.5 nM | Ki [4]: 0.6 nM | Ki [5]: 3 nM | Ki [6]: 5 nM | Ki [7]: 10 nM | Ki [8]: 1200 nM
